In patent publication US20240124479A1, “PYRIMIDINE CARBOXAMIDE COMPOUND AND USE THEREOF” (SHANGHAI MEIYUE BIOTECH DEVELOPMENT CO. LTD, priority 2020, published 2024):
Read-outs that look alike come from different tables or passages of the source.

Key:
[1] = molecular target: human plasma Vanin-1 (Homo sapiens (Human), UniProt O95497); assay: Human plasma Vanin-1 enzyme activity inhibition assay; type: biochemical; settings: 100-fold diluted human plasma, substrate 25 μM, reading at 30th minute; read-out: hPlasma IC50
Chain of human plasma Vanin-1 (O95497 22-513): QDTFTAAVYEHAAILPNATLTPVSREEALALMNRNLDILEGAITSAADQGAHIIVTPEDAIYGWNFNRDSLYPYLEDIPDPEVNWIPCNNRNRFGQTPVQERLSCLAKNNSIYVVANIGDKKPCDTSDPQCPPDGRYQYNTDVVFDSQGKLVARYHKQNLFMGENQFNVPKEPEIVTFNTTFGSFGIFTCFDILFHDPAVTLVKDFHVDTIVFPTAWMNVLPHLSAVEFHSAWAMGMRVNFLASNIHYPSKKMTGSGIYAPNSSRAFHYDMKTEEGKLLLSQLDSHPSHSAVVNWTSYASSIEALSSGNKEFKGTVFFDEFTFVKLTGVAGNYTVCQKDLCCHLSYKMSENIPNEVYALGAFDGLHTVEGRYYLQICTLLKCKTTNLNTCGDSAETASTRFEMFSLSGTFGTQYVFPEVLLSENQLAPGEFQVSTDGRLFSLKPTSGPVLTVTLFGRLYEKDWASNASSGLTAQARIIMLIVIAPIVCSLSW

[2] = system: CYP enzymes; assay: CYP enzyme inhibition, overall statement on tested CYP enzymes; type: in vitro ADME; settings: 1A2, 2C9, 2C19, 2D6, 3A4; result in words
From the text: (§1) […]. […] […].

[3] = In vitro liver microsome stability assay, human; type: in vitro ADME; settings: liver microsomes, read-out: T1/2 Human
Description: (§2) PBS Buffer was 50 mM K2HPO4 buffer.

[4] = molecular target: CYP 2D6 (Homo sapiens (Human), UniProt P10635); assay: CYP enzyme inhibitory activity IC50 assay (cocktail method), 2D6; type: in vitro ADME; settings: microsomes 0.1 mg/mL, probe Dextromethorphan
Chain of CYP 2D6 (P10635 whole entry): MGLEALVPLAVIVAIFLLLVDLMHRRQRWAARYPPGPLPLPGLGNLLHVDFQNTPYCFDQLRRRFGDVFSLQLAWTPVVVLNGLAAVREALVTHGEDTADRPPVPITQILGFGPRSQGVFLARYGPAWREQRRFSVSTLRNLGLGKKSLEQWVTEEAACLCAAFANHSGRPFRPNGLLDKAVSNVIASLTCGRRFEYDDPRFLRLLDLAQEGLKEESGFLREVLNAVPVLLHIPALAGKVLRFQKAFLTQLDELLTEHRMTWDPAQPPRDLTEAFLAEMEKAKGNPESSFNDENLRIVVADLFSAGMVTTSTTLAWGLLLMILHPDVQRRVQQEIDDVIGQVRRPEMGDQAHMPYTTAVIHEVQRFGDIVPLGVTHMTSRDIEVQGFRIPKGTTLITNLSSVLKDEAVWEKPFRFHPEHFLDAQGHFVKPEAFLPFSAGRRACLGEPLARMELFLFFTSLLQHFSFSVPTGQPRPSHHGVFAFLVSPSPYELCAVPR
From the text: as §1

[5] = In vitro liver microsome stability, overall statement; type: in vitro ADME; settings: human, mouse, rat liver microsomes; result in words
Description: as §2

[6] = In vitro liver microsome stability assay, mouse; type: in vitro ADME; settings: liver microsomes, read-out: T1/2 Mouse
Description: as §2

[7] = In vitro liver microsome stability assay, rat; type: in vitro ADME; settings: liver microsomes, read-out: T1/2 Rat
Description: as §2

[8] = molecular target: CYP 2C19 (Homo sapiens (Human), UniProt P33261); assay: CYP enzyme inhibitory activity IC50 assay (cocktail method), 2C19; type: in vitro ADME; settings: microsomes 0.1 mg/mL, probe Mephenytoin
Chain of CYP 2C19 (P33261 whole entry): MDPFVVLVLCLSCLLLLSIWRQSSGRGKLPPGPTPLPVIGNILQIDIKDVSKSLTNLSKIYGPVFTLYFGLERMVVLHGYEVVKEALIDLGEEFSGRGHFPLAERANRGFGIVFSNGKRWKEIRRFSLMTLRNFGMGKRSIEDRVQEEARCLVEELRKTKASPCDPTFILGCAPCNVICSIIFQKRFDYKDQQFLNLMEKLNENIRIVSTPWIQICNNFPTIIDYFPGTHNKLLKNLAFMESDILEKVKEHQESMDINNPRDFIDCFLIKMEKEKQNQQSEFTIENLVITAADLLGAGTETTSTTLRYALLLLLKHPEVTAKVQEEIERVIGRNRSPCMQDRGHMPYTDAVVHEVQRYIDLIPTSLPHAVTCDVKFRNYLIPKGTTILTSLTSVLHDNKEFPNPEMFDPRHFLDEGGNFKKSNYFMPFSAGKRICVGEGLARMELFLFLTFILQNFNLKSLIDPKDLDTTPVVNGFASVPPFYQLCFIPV
From the text: as §1

[9] = molecular target: CYP 2C9 (Homo sapiens (Human), UniProt P11712); assay: CYP enzyme inhibitory activity IC50 assay (cocktail method), 2C9; type: in vitro ADME; settings: microsomes 0.1 mg/mL, probe Diclofenac
Chain of CYP 2C9 (P11712 whole entry): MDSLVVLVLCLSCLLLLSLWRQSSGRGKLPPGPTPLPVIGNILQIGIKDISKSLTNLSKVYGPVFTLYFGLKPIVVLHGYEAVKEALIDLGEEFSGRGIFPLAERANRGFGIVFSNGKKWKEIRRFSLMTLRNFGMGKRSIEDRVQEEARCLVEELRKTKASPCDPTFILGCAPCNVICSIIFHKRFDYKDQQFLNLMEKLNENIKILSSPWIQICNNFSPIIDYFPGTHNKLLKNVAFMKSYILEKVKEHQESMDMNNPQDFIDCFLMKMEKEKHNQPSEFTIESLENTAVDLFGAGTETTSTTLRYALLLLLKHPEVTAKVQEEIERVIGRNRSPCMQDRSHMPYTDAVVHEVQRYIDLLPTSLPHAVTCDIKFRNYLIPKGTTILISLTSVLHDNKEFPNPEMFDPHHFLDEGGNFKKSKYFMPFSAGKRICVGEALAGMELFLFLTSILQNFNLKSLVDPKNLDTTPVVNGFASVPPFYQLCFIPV
From the text: as §1

[10] = molecular target: CYP 1A2 (Homo sapiens (Human), UniProt P05177); assay: CYP enzyme inhibitory activity IC50 assay (cocktail method), 1A2; type: in vitro ADME; settings: microsomes 0.1 mg/mL, probe Phenacetin
Chain of CYP 1A2 (P05177 whole entry): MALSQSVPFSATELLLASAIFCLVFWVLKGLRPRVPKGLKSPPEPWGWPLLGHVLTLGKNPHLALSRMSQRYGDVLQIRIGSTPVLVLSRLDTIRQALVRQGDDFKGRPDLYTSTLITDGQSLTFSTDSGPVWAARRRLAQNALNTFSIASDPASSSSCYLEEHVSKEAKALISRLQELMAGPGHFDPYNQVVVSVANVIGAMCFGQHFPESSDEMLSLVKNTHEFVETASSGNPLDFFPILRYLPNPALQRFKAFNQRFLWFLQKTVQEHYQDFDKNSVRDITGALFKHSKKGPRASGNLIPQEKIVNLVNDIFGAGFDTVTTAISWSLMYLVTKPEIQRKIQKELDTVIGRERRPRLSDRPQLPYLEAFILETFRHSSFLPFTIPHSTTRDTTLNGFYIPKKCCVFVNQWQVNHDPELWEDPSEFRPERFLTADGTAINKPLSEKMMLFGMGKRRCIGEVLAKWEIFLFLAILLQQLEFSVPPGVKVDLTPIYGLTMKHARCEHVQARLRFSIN
From the text: as §1

[11] = molecular target: CYP3A4 (Homo sapiens, UniProt P08684); assay: in vitro; settings: microsomes
Chain of CYP3A4 (P08684 2-503 limits assumed): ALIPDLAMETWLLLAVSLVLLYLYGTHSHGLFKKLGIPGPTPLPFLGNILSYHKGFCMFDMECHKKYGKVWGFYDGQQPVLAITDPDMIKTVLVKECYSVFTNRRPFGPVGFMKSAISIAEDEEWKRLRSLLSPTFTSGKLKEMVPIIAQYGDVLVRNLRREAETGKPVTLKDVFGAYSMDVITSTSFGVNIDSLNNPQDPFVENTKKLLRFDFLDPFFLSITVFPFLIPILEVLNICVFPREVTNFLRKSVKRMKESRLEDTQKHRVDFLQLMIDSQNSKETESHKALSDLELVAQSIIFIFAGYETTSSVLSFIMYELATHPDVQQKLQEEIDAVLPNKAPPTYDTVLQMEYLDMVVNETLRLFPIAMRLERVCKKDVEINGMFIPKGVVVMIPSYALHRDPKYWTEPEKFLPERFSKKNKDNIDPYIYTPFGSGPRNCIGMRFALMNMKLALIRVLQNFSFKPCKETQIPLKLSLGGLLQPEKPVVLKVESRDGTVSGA

[12] = In vivo pharmacokinetic evaluation in mice; design: clearance: unit not given here; settings: for AUC(0-t): read-out: Area under the curve AUC0-7 h; for half-life: read-out: Half-life T1/2 (converted); for Cmax: read-out: Peak concentration Cmax
From the text: The vehicle used in the experiment was: DMSO: Solutol: PBS=5%:25%:70% (v/v/v). Preparation method: The required compound was weighed accurately, added with a certain volume of DMSO in a certain proportion, vortex-mixed until completely dissolved, then added successively with Solutol and PBS according to the above proportion, and mixed well. The vehicles used in the intravenous (iv) administration group and oral (po) administration group were the same vehicles in the experiment. The intravenous dose was 2 mpk and the oral dose was 5 mpk. Experimental blood collection time points: IV group: 0.083, 0.25, 0.5, 1, 2, 4, 7, 24 h. PO group: 200 μL of whole blood was collected from jugular vein at each time point of 0.25, 0.5, 1, 2, 4, 7 and 24 h, anticoagulated with EDTA-K2, and immediately centrifuged at 4000 rpm for 5 minutes at 4° C. The supernatant was taken and the samples were frozen and stored in a refrigerator at −80° C. Processing of plasma samples: the sample was precipitated with ACN/MeOH (1:1, v/v) precipitant containing internal standard, then centrifuged at 14000 rpm for 5 minutes. The supernatant was taken into LC-MS/MS (AB Triple Quard 5500) for analysis to obtain plasma concentrations, and parameters were calculated by the non-compartmental model of Winnolin 8.1 version.

[13] = mouse, plasma, 2 mg/kg, intravenous injection, 2 mpk
[14] = mouse, plasma, po, 5 mg/kg, intragastric administration, 5 mpk

Structure (SMILES): CC(Nc1ncc(C(=O)N2CCC3(CCOCC3)C2)cn1)c1ccccc1 (stereo not shown) [Compound 6]
- IC50 [1]: 0.0016 µM

Structure (SMILES): O=C(c1cnc(NCc2ccc(F)cc2F)nc1)N1CCC2(CCOCC2)C1 [Compound 12]
- IC50 [1]: 0.0079 µM

Structure (SMILES): CC(=O)N(C)[C@H]1CCN(C(=O)c2cnc(N[C@H](C)c3ccc(C(F)(F)F)cc3F)nc2)C1 [Compound 41-P2]
- inhibitory effect on the tested CYP enzymes [2]: basically no inhibitory effect
- half-life at 1 μM [3]: > 4.66 h
- IC50 [4]: > 50 µM
- liver microsome stability [5]: remarkable stability
- half-life at 1 μM [6]: 1.65 h
- half-life at 1 μM [7]: 3.31 h
- IC50 [8]: > 50 µM
- IC50 [9]: 45.6 µM
- IC50 [10]: > 50 µM
- IC50 at 10 min [11]: > 50 µM
- Area under the curve AUC0-7 h ([12]; intragastric administration, 5 mpk): 10656.5 ng·h/mL
- AUC(0-t) [12, 13]: 4960 ng·h/mL
- clearance ([12]; mouse, plasma, 2 mg/kg, intravenous injection, 2 mpk, read-out: Clearance rate CL (converted)): 0.112
- Vd ([12]; mouse, plasma, 2 mg/kg, intravenous injection, 2 mpk, read-out: Distributed solvent Vd): 1.26 L/kg
- half-life [12, 13]: 2.8 h
- Cmax [12, 13]: 2140 ng/mL
- bioavailability ([12]; mouse, plasma, oral, intragastric administration 5 mpk vs intravenous 2 mpk, read-out: Bioavailability F %): 86%
- AUC(0-t) [12, 14]: 10700 ng·h/mL
- half-life [12, 14]: 5.6 h
- Cmax [12, 14]: 1540 ng/mL
